Values quoted from earlier work in publication PMC5879685 (Proceedings of the National Academy of Sciences of the …, 2018).

SMILES	Effect on PKG (PKG)	Effect on CNGC (CNGC)
Nc1nc2c(ncn2[C@@H]2O[C@@H]3COP(O)(=S)O[C@H]3[C@H]2O)c(=O)[nH]1 (single isomer, unassigned) [B, Guanosine-3′,5′-cyclic monophosphorothioate, RP-isomer]	−	+
Nc1nc2c(nc(Br)n2[C@@H]2O[C@@H]3COP(O)(=S)O[C@H]3[C@H]2O)c(=O)[nH]1 (single isomer, unassigned) [C, 8-bromoguanosine-3′,5′-cyclic monophosphorothioate, RP-isomer]	−	+
Nc1nc2c(ncn2[C@@H]2O[C@@H]3COP(=O)(O)O[C@H]3[C@H]2O)c(=O)[nH]1 [Compound A, Guanosine-3′,5′-cyclic monophosphate]	+	+
